The results in this text go back to paper PMC10584170, “Machine learning-based phenotypic imaging to characterise the targetable biology of Plasmodium falciparum male gametocytes for the development of transmission-blocking antimalarials” (PLOS Pathogens, 2023).

SMILES strings stand for the structures. Where two headings read alike, the source gives them in different places.

Series [1] concerns HepG2 cells. The experiment in a line: HepG2 cytotoxicity counter-screen. To be noted: cytotoxic activity against HepG2 cells. For orientation: A counterscreen serves to expose hits that act by an unwanted route or on another target.
The test system of series [2] is P. falciparum female gametocytes. Description: P. falciparum Dual Gamete Formation Assay (PfDGFA), female readout (Pfs25-positive female gametes). It counts as cell-based, Plasmodium falciparum NF54. The settings on record: for HitlevelF: number of replicates with >50% inhibition in the female readout; for Selectivity ratio F: HepG2 Tox50 versus female IC50; for IC50: PfDGFA, 24 h incubation with gametocytes before induction, female gamete readout, read-out: Female IC50. The gist of the method: (§1)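 Two sex-specific readouts come from one well: male exflagellation centres recorded by brightfield video right after activation, and female gametes scored by Cy3-anti-Pfs25 fluorescence after 24 h at 28°C.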

For series [3], the system named is P. falciparum male gametocytes. Description: P. falciparum Dual Gamete Formation Assay (PfDGFA), male readout (exflagellation). Type of series: cell-based, Plasmodium falciparum NF54. The settings on record: for HitlevelM: number of replicates with >50% inhibition in the male readout; for Selectivity Ratio M: HepG2 Tox50 versus male IC50; for IC50: PfDGFA, 24 h incubation with gametocytes before induction, exflagellation readout, read-out: Male IC50. The gist of the method:
as §1

Where [4] appears, read: PfDGFA at 2µM, 24h preincubation with gametocytes, average of replicates.
[5] abbreviates: PfDGFA at 2µM, 24h preincubation with gametocytes, replicate R1.
The mark [6] stands for this setting: PfDGFA at 2µM, 24h preincubation with gametocytes, replicate R3.
[7] abbreviates: PfDGFA at 2µM, 24h preincubation with gametocytes, replicate R4.
The mark [8] stands for this setting: Plasmodium falciparum, 2µM, 24h preincubation with gametocytes, average of replicates, read-out: Average inhibition female (%).
Setting [9] is: Plasmodium falciparum, 2µM, 24h preincubation with gametocytes, replicate R1, read-out: % inhibition female (individual replicates) R1.
[10] abbreviates: Plasmodium falciparum, 2µM, 24h preincubation with gametocytes, replicate R2, read-out: % inhibition female (individual replicates) R2.
[11] abbreviates: Plasmodium falciparum, 2µM, 24h preincubation with gametocytes, replicate R3, read-out: % inhibition female (individual replicates) R3.
Where [12] appears, read: Plasmodium falciparum, 2µM, 24h preincubation with gametocytes, replicate R4, read-out: % inhibition female (individual replicates) R4.
[13] abbreviates: Plasmodium falciparum, 2µM, 24h preincubation with gametocytes, average of replicates, read-out: Average inhibition male (%).
Where [14] appears, read: Plasmodium falciparum, 2µM, 24h preincubation with gametocytes, replicate R1, read-out: % inhibition male (individual replicates) R1.
Setting [15] is: Plasmodium falciparum, 2µM, 24h preincubation with gametocytes, replicate R2, read-out: % inhibition male (individual replicates) R2.
Setting [16] is: Plasmodium falciparum, 2µM, 24h preincubation with gametocytes, replicate R3, read-out: % inhibition male (individual replicates) R3.
Setting [17] is: Plasmodium falciparum, 2µM, 24h preincubation with gametocytes, replicate R4, read-out: % inhibition male (individual replicates) R4.

Usually inhibition stands for the change of the read-out against control, counted positive when it falls. For orientation: IC50 means the point on the concentration scale where inhibition reaches its midpoint.

For `CN1CCN(c2ccc(Nc3c4ccccc4nc4ccccc34)cc2)CC1` [TCMDC-123912], the Tox50 in series [1] came out at 26.65 µM. The compound further displayed a HitlevelF in series [2] (2µM, 24h preincubation) of 0. Further, the “Selectivity ratio F” value in series [2] is listed as 3.01. The inhibition at 2 µM was found to be 9.1% in series [2] (Plasmodium falciparum, 2µM, 24h preincubation with gametocytes prior to induction of gametogenesis, average of replicates, read-out: Average inhibition female (%)); 23.8% in series [2] (Plasmodium falciparum, 2µM, 24h preincubation with gametocytes prior to induction of gametogenesis, replicate R1, read-out: % inhibition female (individual replicates) R1); 8% in series [2] (Plasmodium falciparum, 2µM, 24h preincubation with gametocytes prior to induction of gametogenesis, replicate R2, read-out: % inhibition female (individual replicates) R2); 0.7% in series [2] (Plasmodium falciparum, 2µM, 24h preincubation with gametocytes prior to induction of gametogenesis, replicate R3, read-out: % inhibition female (individual replicates) R3); 4.1% in series [2] (Plasmodium falciparum, 2µM, 24h preincubation with gametocytes prior to induction of gametogenesis, replicate R4, read-out: % inhibition female (individual replicates) R4); 62.8% in series [3] (Plasmodium falciparum, 2µM, 24h preincubation with gametocytes prior to induction of gametogenesis, average of replicates, read-out: Average inhibition male (%)). The inhibition at 2 µM in series [3] (Plasmodium falciparum, 2µM, 24h preincubation with gametocytes prior to induction of gametogenesis, replicate R1, read-out: % inhibition male (individual replicates) R1) amounted to 83%; in series [3] (Plasmodium falciparum, 2µM, 24h preincubation with gametocytes prior to induction of gametogenesis, replicate R2, read-out: % inhibition male (individual replicates) R2), 83.6%; in series [3] (Plasmodium falciparum, 2µM, 24h preincubation with gametocytes prior to induction of gametogenesis, replicate R3, read-out: % inhibition male (individual replicates) R3), 12.9%; in series [3] (Plasmodium falciparum, 2µM, 24h preincubation with gametocytes prior to induction of gametogenesis, replicate R4, read-out: % inhibition male (individual replicates) R4) it was 71.6%. For the same compound, the IC50 in series [2] (Plasmodium falciparum) turned out to be 8840 nM; in series [3] (Plasmodium falciparum), 590 nM. The same compound came in with a HitlevelM in series [3] (2µM, 24h preincubation) of 3. The “Selectivity Ratio M” value in series [3] came to 45.1.

In series [1], `COc1ccc(C[C@H](N)C(=O)N[C@H]2[C@@H](O)[C@H](n3cnc4c(N(C)C)ncnc43)O[C@@H]2CO)cc1.Cl` [TCMDC-123927] registered a Tox50 of 2.01 µM. In series [2], the “Selectivity ratio F” value came out at 0.5 and the IC50 was 4000 nM. Besides, the “Average inhibition female (%)” value in series [2] (setting [4]) was 38.8%. Besides, the “% inhibition female (individual replicates) R1” value in series [2] (setting [5]) is 27.9%. Moreover, the “% inhibition female (individual replicates) R3” value in series [2] (setting [6]) was 10.7%. For the same compound, the “% inhibition female (individual replicates) R4” value in series [2] (setting [7]) came out at 72.0%. The same compound had a HitlevelF in series [2] (2µM) of 1. Besides, in series [3], the “Selectivity Ratio M” value is on record as 4.87 and the IC50 was 410 nM. The “Average inhibition male (%)” value in series [3] (setting [4]) is given as 79.6%. Further, in series [3] (setting [5]), the “% inhibition male (individual replicates) R1” value was found to be 87.8%. Also, the “% inhibition male (individual replicates) R3” value in series [3] (setting [6]) was determined as 64.7%. In series [3] (setting [7]), the “% inhibition male (individual replicates) R4” value came to 82.2%. The compound also registered a HitlevelM in series [3] (2µM) of 4.

In series [1], `CCc1cc2c(Sc3nnc(N)s3)ncnc2s1` [TCMDC-123993] showed a Tox50 of 61 µM. In addition, the “Selectivity ratio F” value in series [2] was determined as 82.32. The inhibition at 2 µM was determined as 62.7% in series [2] (Plasmodium falciparum, PfDGFA at 2µM, 24h preincubation with gametocytes, average of replicates, read-out: Average inhibition female (%)); 49.4% in series [2] (Plasmodium falciparum, PfDGFA at 2µM, 24h preincubation with gametocytes, replicate R1, read-out: % inhibition female (individual replicates) R1); 83% in series [2] (Plasmodium falciparum, PfDGFA at 2µM, 24h preincubation with gametocytes, replicate R2, read-out: % inhibition female (individual replicates) R2); 66.2% in series [2] (Plasmodium falciparum, PfDGFA at 2µM, 24h preincubation with gametocytes, replicate R3, read-out: % inhibition female (individual replicates) R3); 52.3% in series [2] (Plasmodium falciparum, PfDGFA at 2µM, 24h preincubation with gametocytes, replicate R4, read-out: % inhibition female (individual replicates) R4); 88.1% in series [3] (Plasmodium falciparum, PfDGFA at 2µM, 24h preincubation with gametocytes, average of replicates, read-out: Average inhibition male (%)). Further, the inhibition at 2 µM in series [3] (Plasmodium falciparum, PfDGFA at 2µM, 24h preincubation with gametocytes, replicate R1, read-out: % inhibition male (individual replicates) R1) turned out to be 91.2%; in series [3] (Plasmodium falciparum, PfDGFA at 2µM, 24h preincubation with gametocytes, replicate R2, read-out: % inhibition male (individual replicates) R2), 88.6%; in series [3] (Plasmodium falciparum, PfDGFA at 2µM, 24h preincubation with gametocytes, replicate R3, read-out: % inhibition male (individual replicates) R3), 87.9%; in series [3] (Plasmodium falciparum, PfDGFA at 2µM, 24h preincubation with gametocytes, replicate R4, read-out: % inhibition male (individual replicates) R4), 84.9%. For the same compound, the IC50 in series [2] (Plasmodium falciparum) came out at 740 nM; in series [3] (Plasmodium falciparum), 980 nM. The HitlevelF in series [2] (2µM) was 3. For the same compound, the “Selectivity Ratio M” value in series [3] amounted to 62.08. The compound further gave a HitlevelM in series [3] (2µM) of 4.

The compound `[O-][s+]1c(Cl)c(-c2ccc(Cl)cc2)c2ccc(Cl)cc21` (stereo not shown) [TCMDC-124011] gave a Tox50 in series [1] of 17.6 µM. Further, the “Selectivity ratio F” value in series [2] was found to be 125.38. Besides, the inhibition at 2 µM in series [2] (setting [8]) is 46.7%; in series [2] (setting [9]) it was 29.4%; in series [2] (setting [10]) it was 65.7%; in series [2] (setting [11]) it was 37%; in series [2] (setting [12]), 54.7%; in series [3] (setting [13]) it was 99.1%. Moreover, the inhibition at 2 µM in series [3] (setting [14]) was 99.4%; in series [3] (setting [15]), 99.6%; in series [3] (setting [16]), 98.6%; in series [3] (setting [17]), 98.9%. Moreover, the IC50 in series [2] (Plasmodium falciparum) and in series [3] (Plasmodium falciparum) was 140 nM throughout. Besides, the “Selectivity Ratio M” value in series [3] was found to be 123.92.

`CCCCOc1ccc(C(=O)C(CCC(CNC(C)(C)C)C(=O)c2ccc(OCCCC)cc2)CNC(C)(C)C)cc1.Cl` (stereo not shown) [TCMDC-124120] displayed a Tox50 in series [1] of 3.4 µM. In addition, in series [2], the “Selectivity ratio F” value is recorded as 0.84 and the IC50 worked out at 4060 nM. Moreover, in series [2] (setting [4]), the “Average inhibition female (%)” value is recorded as 46.8%. Besides, in series [2] (setting [5]), the “% inhibition female (individual replicates) R1” value came to 36.1%. For the same compound, the “% inhibition female (individual replicates) R3” value in series [2] (setting [6]) came out at 20.3%. Also, the “% inhibition female (individual replicates) R4” value in series [2] (setting [7]) was found to be 72.1%. In series [2] (2µM), this compound displayed a HitlevelF of 2. Also, in series [3], the “Selectivity Ratio M” value is reported as 2.27 and the IC50 came out at 1500 nM. The “Average inhibition male (%)” value in series [3] (setting [4]) came out at 78.6%. The “% inhibition male (individual replicates) R1” value in series [3] (setting [5]) was found to be 81.6%. For the same compound, the “% inhibition male (individual replicates) R3” value in series [3] (setting [6]) turned out to be 47.4%. The “% inhibition male (individual replicates) R4” value in series [3] (setting [7]) worked out at 92.9%. In series [3] (2µM), this compound displayed a HitlevelM of 3.

`CCN1CCN(c2ccc(Nc3c4ccccc4nc4ccccc34)cc2)CC1` [TCMDC-124255] had a Tox50 in series [1] of 14.96 µM. In addition, in series [2], the “Selectivity ratio F” value is recorded as 2.14 and the half-maximal inhibitory concentration (IC50) was 6980 nM. Further, the “Average inhibition female (%)” value in series [2] (setting [4]) is -4.4%. In addition, the “% inhibition female (individual replicates) R1” value in series [2] (setting [5]) is given as -2.2%. Further, the “% inhibition female (individual replicates) R3” value in series [2] (setting [6]) is listed as -22.1%. Further, the “% inhibition female (individual replicates) R4” value in series [2] (setting [7]) stood at 3.0%. The HitlevelF in series [2] (2µM) is given as 0. Moreover, in series [3], the “Selectivity Ratio M” value is 8.44 and the half-inhibitory concentration (IC50) was determined as 1770 nM. Also, the “Average inhibition male (%)” value in series [3] (setting [4]) stood at 77.2%. Also, the “% inhibition male (individual replicates) R1” value in series [3] (setting [5]) worked out at 84.6%. For the same compound, the “% inhibition male (individual replicates) R3” value in series [3] (setting [6]) was determined as 78.3%. Besides, the “% inhibition male (individual replicates) R4” value in series [3] (setting [7]) is reported as 87.4%. The same compound displayed a HitlevelM in series [3] (2µM) of 4.

The compound `O=C1Nc2ccccc2C1=NNC(=S)N1CCOCC1` [TCMDC-124263] registered a Tox50 in series [1] of 46.3 µM. Further, the “Selectivity ratio F” value in series [2] was 25.94. Moreover, the inhibition at 2 µM in series [2] (setting [8]) worked out at 55.9%; in series [2] (setting [9]) it was 38.4%; in series [2] (setting [10]), 72%; in series [2] (setting [11]), 48.4%; in series [2] (setting [12]) it was 64.6%; in series [3] (setting [13]), 98.7%. Further, the inhibition at 2 µM turned out to be 98.4% in series [3] (setting [14]), 100% in series [3] (setting [15]), 99.2% in series [3] (setting [16]) and 96.9% in series [3] (setting [17]). Besides, the IC50 was 1780 nM in series [2] (Plasmodium falciparum) and 940 nM in series [3] (Plasmodium falciparum). The “Selectivity Ratio M” value in series [3] is reported as 49.26.
